Assay results as given in ChEMBL document CHEMBL3621049, “Imidazole derivatives show anticancer potential by inducing apoptosis and cellular senescence” (2014).
The source made the active and inactive calls. The calls are words filed in the database; no cut-off is given here.

What was measured:
HOP-62 = test: Growth inhibition of human HOP62 cells at 10 uM by sulforhodamine B assay; format: functional, cell-based
DU-145 = test: Growth inhibition of human DU145 cells at 10 uM by sulforhodamine B assay; format: functional, cell-based
CAKI-1 = test: Growth inhibition of human Caki1 cells at 10 uM by sulforhodamine B assay; format: functional, cell-based
A549 [1] = test: Induction of morphological changes in human A549 cells at 10 to 50 uM; format: functional, cell-based
A549 [2] = test: Cytotoxicity against human A549 cells assessed as decrease in cell viability up to 72 hrs by MTT assay; format: functional, cell-based
NCI-H226 = test: Growth inhibition of human NCI-H226 cells at 10 uM by sulforhodamine B assay; format: functional, cell-based
HOP-92 = test: Growth inhibition of human HOP92 cells at 10 uM by sulforhodamine B assay; format: functional, cell-based
U-251 = test: Growth inhibition of human U251 cells at 10 uM by sulforhodamine B assay; format: functional, cell-based
NCI-H460 = test: Growth inhibition of human NCI-H460 cells at 10 uM by sulforhodamine B assay; format: functional, cell-based
MCF7 = test: Growth inhibition of human MCF7 cells at 10 uM by sulforhodamine B assay; format: functional, cell-based
PC-3 = test: Growth inhibition of human PC3 cells at 10 uM by sulforhodamine B assay; format: functional, cell-based
A549 [3] = test: Induction of cellular senescence in human A549 cells assessed as increase of endogenous level of beta-galactosidase by […]/X-gal staining; format: functional, cell-based
A549 [4] = test: Cell cycle arrest in human A549 cells assessed as accumulation at S phase at 10 uM after 48 hrs using propidium iodide staining by flow cytometer analysis (reference value: 6.67%); format: functional
A549 [5] = test: Cell cycle arrest in human A549 cells assessed as accumulation at sub-G1 phase at 10 uM after 48 hrs using propidium iodide staining by flow cytometer analysis (reference value: 0.96%); format: functional
SF-295 = test: Growth inhibition of human SF295 cells at 10 uM by sulforhodamine B assay; format: functional, cell-based
786-0 = test: Growth inhibition of human 786-0 cells at 10 uM by sulforhodamine B assay; format: functional, cell-based
A549 [6] = test: Cell cycle arrest in human A549 cells assessed as accumulation at G0/G1 phase at 20 uM after 48 hrs using propidium iodide staining by flow cytometer analysis (reference value: 79.34%); format: functional
MDA-MB-231 = test: Growth inhibition of human MDA-MB-231 cells at 10 uM by sulforhodamine B assay; format: functional, cell-based
NCI-H522 = test: Growth inhibition of human NCI-H522 cells at 10 uM by sulforhodamine B assay; format: functional, cell-based
A549 [7] = test: Inhibition of colony formation in human A549 cells after 14 days using crystal violet staining by soft agar assay; format: functional, cell-based
UACC-257 = test: Growth inhibition of human UACC257 cells at 10 uM by sulforhodamine B assay; format: functional, cell-based
SK-MEL-2 = test: Growth inhibition of human SK-MEL-2 cells at 10 uM by sulforhodamine B assay; format: functional, cell-based
SNB-19 = test: Growth inhibition of human SNB19 cells at 10 uM by sulforhodamine B assay; format: functional, cell-based
BT-549 = test: Growth inhibition of human BT549 cells at 10 uM by sulforhodamine B assay; format: functional, cell-based
K562 = test: Growth inhibition of human K562 cells at 10 uM by sulforhodamine B assay; format: functional, cell-based
SK-OV-3 = test: Growth inhibition of human SKOV3 cells at 10 uM by sulforhodamine B assay; format: functional, cell-based
M14 = test: Growth inhibition of human M14 cells at 10 uM by sulforhodamine B assay; format: functional, cell-based
OVCAR-5 = test: Growth inhibition of human OVCAR5 cells at 10 uM by sulforhodamine B assay; format: functional, cell-based
KM12 = test: Growth inhibition of human KM12 cells at 10 uM by sulforhodamine B assay; format: functional, cell-based
A549 [8] = test: Cell cycle arrest in human A549 cells assessed as accumulation at S phase at 5 uM after 48 hrs using propidium iodide staining by flow cytometer analysis (reference value: 6.67%); format: functional
A549 [9] = test: Induction of apoptosis in human A549 cells assessed as activation of caspase; format: functional, cell-based
SN12C = test: Growth inhibition of human SN12C cells at 10 uM by sulforhodamine B assay; format: functional, cell-based
A549 [10] = test: Cytotoxicity against human A549 cells assessed as decrease in cell viability at 10 uM after 24 hrs by MTT assay relative to control; format: functional
UACC-62 = test: Growth inhibition of human UACC62 cells at 10 uM by sulforhodamine B assay; format: functional, cell-based
SNB-75 = test: Growth inhibition of human SNB75 cells at 10 uM by sulforhodamine B assay; format: functional, cell-based
NCI/ADR-RES = test: Growth inhibition of human NCI/ADR-RES cells at 10 uM by sulforhodamine B assay; format: functional, cell-based
HCT-15 = test: Growth inhibition of human HCT15 cells at 10 uM by sulforhodamine B assay; format: functional, cell-based
SF-539 = test: Growth inhibition of human SF539 cells at 10 uM by sulforhodamine B assay; format: functional, cell-based
SK-MEL-5 = test: Growth inhibition of human SK-MEL-5 cells at 10 uM by sulforhodamine B assay; format: functional, cell-based
A549 [11] = test: Cell cycle arrest in human A549 cells assessed as accumulation at G2/M phase at 5 uM after 48 hrs using propidium iodide staining by flow cytometer analysis (reference value: 13.02%); format: functional
RXF 393 = test: Growth inhibition of human RXF393 cells at 10 uM by sulforhodamine B assay; format: functional, cell-based
OVCAR-8 = test: Growth inhibition of human OVCAR8 cells at 10 uM by sulforhodamine B assay; format: functional, cell-based
A549 [12] = test: Inhibition of colony formation in human A549 cells assessed as change in colony morphology after 14 days using crystal violet staining by soft agar assay; format: functional, cell-based
SK-MEL-28 = test: Growth inhibition of human SK-MEL-28 cells at 10 uM by sulforhodamine B assay; format: functional, cell-based
MDA-MB-468 = test: Growth inhibition of human MDA-MB-468 cells at 10 uM by sulforhodamine B assay; format: functional, cell-based
HCC 2998 = test: Growth inhibition of human HCC2998 cells at 10 uM by sulforhodamine B assay; format: functional, cell-based
A549 [13] = test: Growth inhibition of human A549/ATCC cells at 10 uM by sulforhodamine B assay; format: functional, cell-based
UO-31 = test: Growth inhibition of human UO31 cells at 10 uM by sulforhodamine B assay; format: functional, cell-based
A549 [14] = test: Cell cycle arrest in human A549 cells assessed as accumulation at G2/M phase at 20 uM after 48 hrs using propidium iodide staining by flow cytometer analysis (reference value: 13.02%); format: functional
OVCAR-4 = test: Growth inhibition of human OVCAR4 cells at 10 uM by sulforhodamine B assay; format: functional, cell-based
A549 [15] = test: Cell cycle arrest in human A549 cells assessed as accumulation at G0/G1 phase at 10 uM after 48 hrs using propidium iodide staining by flow cytometer analysis (reference value: 79.34%); format: functional

**Q.** What does the source list for `COc1ccc(-c2nc(-c3ccccn3)c(-c3ccccn3)n2CC(C)C)cc1OC1CCCC1`?
**A.** growth inhibition (GI) (HOP-62): Active; growth inhibition (GI) (DU-145): Active; growth inhibition (GI) (CAKI-1): Active; Activity (A549 [1]): Active; Activity (A549 [2]): Dose-dependent effect; growth inhibition (GI) (NCI-H226): Active; growth inhibition (GI) (HOP-92): Active; growth inhibition (GI) (U-251): Active; growth inhibition (GI) (NCI-H460): Active; growth inhibition (GI) (MCF7): Active; growth inhibition (GI) (PC-3): Active; Activity (A549 [3]): Dose-dependent effect; Activity (A549 [4]): 9.95%; Activity (A549 [5]): 7.63%; growth inhibition (GI) (SF-295): Active; growth inhibition (GI) (786-0): Active; Activity (A549 [6]): 69.52%; growth inhibition (GI) (MDA-MB-231): Active; growth inhibition (GI) (NCI-H522): Active; inhibition (A549 [7]): Dose-dependent effect; growth inhibition (GI) (UACC-257): Active; growth inhibition (GI) (SK-MEL-2): Active; growth inhibition (GI) (SNB-19): Active; growth inhibition (GI) (BT-549): Active; growth inhibition (GI) (K562): Active; growth inhibition (GI) (SK-OV-3): Active; growth inhibition (GI) (M14): Active; growth inhibition (GI) (OVCAR-5): Active; growth inhibition (GI) (KM12): Active; Activity (A549 [8]): 3.47%; Activity (A549 [9]): inactive; growth inhibition (GI) (SN12C): Active; fold change (FC) (A549 [10]): 2; growth inhibition (GI) (UACC-62): Active; growth inhibition (GI) (SNB-75): Active; growth inhibition (GI) (NCI/ADR-RES): Active; growth inhibition (GI) (HCT-15): Active; growth inhibition (GI) (SF-539): Active; growth inhibition (GI) (SK-MEL-5): Active; Activity (A549 [11]): 4.65%; growth inhibition (GI) (RXF 393): Active; growth inhibition (GI) (OVCAR-8): Active; inhibition (A549 [12]): Active; growth inhibition (GI) (SK-MEL-28): Active; growth inhibition (GI) (MDA-MB-468): Active; growth inhibition (GI) (HCC 2998): Active; growth inhibition (GI) (A549 [13]): Active; growth inhibition (GI) (UO-31): Active; Activity (A549 [14]): 4.51%; growth inhibition (GI) (OVCAR-4): Active; Activity (A549 [15]): 75.7%
